Test results as given in patent publication US8710050B2, “Di and tri- substituted oxathiazine derivatives, method for the production, method for the production thereof, use thereof as medicine and drug containing said derivatives and use thereof” (Sanofi, priority 2011, dated 2014).

Target: human 11β-HSD1 microsome fraction (Homo sapiens, UniProt P28845)
Assay: Enzymatic 11beta-HSD1 test (SPA-based detection)
Format: biochemical
Conditions: [1,2-3H]-cortisone substrate, 0.25 mM NADPH, 37° C., 1 hour; read-out: IC50 (nM), Biological activity in nanomolar
Procedure: Enzymatic 11beta-HSD1 Test:
To measure the activity of the compounds, an SPA-based detection method (Solly et al. 2005) was employed. First of all, 20 μl of the human 11β-HSD1 microsome fraction (0.2 μg of protein), prepared in 50 mM HEPES, 0.1% BSA (w/v), were applied to a plate with 384 wells. The test compounds (0.09 μl) were applied to the assay plate in 100% DMSO. The reaction was started by addition of 20 μl of [1,2-^3H]-cortisone (0.1 μCi/[…]) in assay buffer comprising 25 mM HEPES, 100 mM KCl, 5 mM NaCl, 2 mM MgCl2 and 0.25 mM NADPH. The plate was agitated at 37° C. for 1 hour. At the same time, a stop solution comprising 20 mg/ml SPA-PVT beads, 1.6 mg/ml monoclonal cortisol antibody and 0.01 mM SSR110887 (inhibitor from the Biovitrium patent) in 50 mM HEPES, 1 M NaCl and 1 M KCl was stirred at room temperature. To stop the reaction, 25 μl of the stop solution were added to each well. The plate was agitated gently at room temperature for 1 further hour and then centrifuged at 500 gav for 1 min, in order that the SPA beads could settle out. The plate was then read in a Wallac-1450-Microbeta unit with a standard SPA program (counting time 1 min/well). The comparative compound was glycyrrhetinic acid.
Protein and radioactive substrate were dispensed with a Biomek FX unit (Beckman Coulter) for handling liquids. The test compounds were added with a Cybi-Well equipped with a 90 nl pin tool (CyBio).
Lit.: Solly S, Mundt S S, Zokian H J, Juy-Fang Ding G, Hermanowski-Vosatka A, Strulovici B and Zheng W. High-throughput screening of 11β-Hydroxysteroid dehydrogenase type 1 in scintillation proximity format. Assay Drug Dev Technol 2005; 3:377-384.

Chain of human 11β-HSD1 microsome fraction (P28845 whole entry): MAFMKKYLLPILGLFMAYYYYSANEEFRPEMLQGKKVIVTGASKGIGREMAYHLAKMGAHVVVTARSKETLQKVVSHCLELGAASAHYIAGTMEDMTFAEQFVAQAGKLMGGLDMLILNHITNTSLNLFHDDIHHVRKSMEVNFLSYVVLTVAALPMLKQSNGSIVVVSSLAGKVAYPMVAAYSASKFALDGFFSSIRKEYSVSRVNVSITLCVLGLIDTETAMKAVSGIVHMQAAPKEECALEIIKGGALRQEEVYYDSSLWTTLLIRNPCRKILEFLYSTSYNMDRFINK

In the case of `CC1C(C)(C)OC(NC2CCCCC2)=NS1(=O)=O` (centres unmarked) [Example 1, Cyclohexyl-(5,6,6-trimethyl-4,4-dioxo-5,6-dihydro-4H-4lambda6-[1,4,3]oxathiazin-2-yl) amine], the IC50 is reported as 139 nM.
For `O=S1(=O)CC2(CCC2)OC(NC2CCCCC2)=N1` [Example 2, Cyclohexyl-(8,8-dioxo-5-oxa-8lambda6-thia-7-azaspiro[3.5]non-6-en-6-yl)amine], the IC50 was 399 nM.
In the case of `O=S1(=O)CC2(CCCC2)OC(NC2CCCCC2)=N1` [Example 3, Cyclohexyl-(9,9-dioxo-6-oxa-9lambda6-thia-8-azaspiro[4.5]dec-7-en-7-yl)amine], the IC50 is reported as 308 nM.
Work on `O=S1(=O)CC2(CCCCC2)OC(NC2CCCCC2)=N1` [Example 4, Cyclohexyl-(4,4-dioxo-1-oxa-4lambda6-thia-3-azaspiro[5.5]undec-2-en-2-yl)amine] yielded an IC50 of 300 nM.
`CC1(C)CS(=O)(=O)N=C(N[C@@H](CCO)c2ccccc2)O1` [Example 5, (S)-3-(6,6-Dlmethyl-4,4-dioxo-5,6-dihydro-4H-4lambda6-[1,4,3]oxathiazin-2-ylamino)-3 phenylpropan-1-ol] was tested, and the IC50 was 307 nM.
In the case of `O=S1(=O)CC2(CCC2)OC(N[C@@H](CCO)c2ccccc2)=N1` [Example 6, (S)-3-(8,8-Dioxo-5-oxa-8lambda6-thia-7-azaspiro[3.5]non-6-en-6-ylamino)-3-phenyl-propan-1-ol], the IC50 is reported as 128 nM.
Work on `O=S1(=O)CC2(CCCC2)OC(N[C@@H](CCO)c2ccccc2)=N1` [Example 7, (S)-3-(9,9-Dioxo-6-oxa-9lambda6-thia-8-aza-spiro[4.5]dec-7-en-7-ylamino)-3-phenyl-propan-1-ol] yielded an IC50 of 113 nM.
With `O=S1(=O)CC2(CCCCC2)OC(N[C@@H](CCO)c2ccccc2)=N1` [Example 8, (S)-3-(4,4-Dioxo-1-oxa-4lambda6-thia-3-aza-spiro[5.5]undec-2-en-2-ylamino)-3-phenyl-propan-1-ol] the IC50 was 66 nM.
